Consider 14 compounds from US10336702B2, “Pharmaceutically active compounds” (BERGENBIO ASA, priority 2015, dated 2019).

One assay addresses T1, p-Akt1 in LNCaP cells (Homo sapiens, UniProt P31749).
T1 construct: SureFire assays to detect cellular p-Akt1, p-Akt2 and p-Akt3 levels in WM115 cells (Akt2/3) and LNCaP cells (Akt1); endogenous in cells; host or cells: LNCaP (ECACC 89110211)
In words: Phospho-Akt cellular SureFire assay, p-Akt1 in LNCaP cells. Type of assay: cell-based. Particulars: read-out: Biological Assay 2 IC50 (nM) Akt1 LNCaP. In outline:
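Phospho-Thr308 Akt1 detected by AlphaScreen SureFire proximity beads in LNCaP lysates after 15 min compound treatment at 37 °C in 0.1% FBS medium, unstimulated, 0.3% DMSO. Cells plated at 5×10^4/well overnight; IC50 from a 4-parameter equation.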

Another assay addresses T2, p-Akt2 in WM115 cells (Homo sapiens, UniProt P31751).
T2 construct: SureFire assays to detect cellular p-Akt1, p-Akt2 and p-Akt3 levels in WM115 cells (Akt2/3) and LNCaP cells (Akt1); endogenous in cells; host or cells: WM115 (ECACC 91061232), insulin-stimulated
In words: Phospho-Akt cellular SureFire assay, p-Akt2 in WM115 cells. Type of assay: cell-based. Particulars: insulin stimulated, read-out: Biological Assay 2 IC50 (nM) Akt2 WM115. In short, it runs like this: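 Readout is a bead-proximity SureFire assay pairing a pThr308 Akt antibody with a total Akt2 antibody, lysate and beads incubated 2 h plus 2 h at room temperature in the dark. Before lysis, serum-starved WM115 cells received 100 nM insulin (10 min), then test compound (15 min, 0.3% DMSO); IC50 by 4-parameter equation.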

A further assay addresses T3, Akt2 (Homo sapiens, UniProt P31751).
T3 construct: unspecified tag, removed (detagged) (cleaved yes); purchased SignalChem and Proteros (Akt2); Merck Millipore (PDK1) 14-452 (PDK1); none given for Akt2
In words: Akt activation assay (PDK1-mediated activation, LANCE Ultra crosstide TR-FRET), Akt2. Type of assay: biochemical. Particulars: read-out: Biological Assay 1 IC50 (nM) Akt2. In outline: (§1)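 Two-step cascade format: Akt1, Akt2 or Akt3 phosphorylates Ulight-crosstide (100 nM) only after activation by 5 nM PDK1 in presence of PtdIns(3,4,5)P3 vesicles and 100 μM ATP. Product quantified by Eu-antibody TR-FRET after 30 min reaction.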
In general terms: TR-FRET usually uses a lanthanide donor and a delayed reading to cut background.

The next assay concerns the target T4, Akt1 (Homo sapiens, UniProt P31749).
T4 construct: unspecified tag, removed (detagged) (cleaved yes); purchased SignalChem and Proteros (Akt1); Merck Millipore (PDK1) 14-452 (PDK1); none given for Akt1
In words: Akt activation assay (PDK1-mediated activation, LANCE Ultra crosstide TR-FRET), Akt1. Type of assay: biochemical. Particulars: read-out: Biological Assay 1 IC50 (nM) Akt1. In outline:
as §1

Another assay addresses T5, p-Akt3 in WM115 cells (Homo sapiens, UniProt Q9Y243).
T5 construct: SureFire assays to detect cellular p-Akt1, p-Akt2 and p-Akt3 levels in WM115 cells (Akt2/3) and LNCaP cells (Akt1); endogenous in cells; host or cells: WM115 (ECACC 91061232), insulin-stimulated
In words: Phospho-Akt cellular SureFire assay, p-Akt3 in WM115 cells. Type of assay: cell-based. Particulars: insulin stimulated, read-out: Biological Assay 2 IC50 (nM) Akt3 WM115. In short, it runs like this:
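pThr308-Akt3 in lysates was quantified by bead-proximity SureFire detection, pairing a phospho-specific antibody with a total Akt3 antibody. Before lysis, WM115 cells in 0.1% FBS medium were treated for 15 min at 37 °C with compound (final DMSO 0.3%), following a 10 min stimulation with 100 nM insulin. IC50 was obtained by 4-parameter fitting.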

A further assay has as its target T6, Akt3 (Homo sapiens, UniProt Q9Y243).
T6 construct: unspecified tag, removed (detagged) (cleaved yes); purchased SignalChem and Proteros (Akt3); Merck Millipore (PDK1) 14-452 (PDK1); none given for Akt3
In words: Akt activation assay (PDK1-mediated activation, LANCE Ultra crosstide TR-FRET), Akt3. Type of assay: biochemical. Particulars: read-out: Biological Assay 1 IC50 (nM) Akt3. In outline:
as §1

Structures are written as SMILES. Where only a bound is given, the exact number is not on record here.

T5 sequence (Q9Y243 whole entry): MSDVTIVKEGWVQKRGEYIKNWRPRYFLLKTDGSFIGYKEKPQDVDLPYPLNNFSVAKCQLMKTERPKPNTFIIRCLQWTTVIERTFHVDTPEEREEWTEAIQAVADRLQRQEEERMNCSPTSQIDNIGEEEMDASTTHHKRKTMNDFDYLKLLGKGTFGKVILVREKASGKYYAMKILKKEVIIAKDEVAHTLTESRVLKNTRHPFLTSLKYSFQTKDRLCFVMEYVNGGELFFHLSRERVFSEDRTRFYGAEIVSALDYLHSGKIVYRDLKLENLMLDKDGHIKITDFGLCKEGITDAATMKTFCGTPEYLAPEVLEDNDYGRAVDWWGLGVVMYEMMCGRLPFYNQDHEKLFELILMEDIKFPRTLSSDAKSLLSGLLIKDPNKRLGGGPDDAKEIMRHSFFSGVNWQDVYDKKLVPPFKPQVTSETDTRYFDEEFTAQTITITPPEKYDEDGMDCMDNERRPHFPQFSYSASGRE
T6 sequence (Q9Y243 whole entry): as above
T2 sequence (P31751 whole entry): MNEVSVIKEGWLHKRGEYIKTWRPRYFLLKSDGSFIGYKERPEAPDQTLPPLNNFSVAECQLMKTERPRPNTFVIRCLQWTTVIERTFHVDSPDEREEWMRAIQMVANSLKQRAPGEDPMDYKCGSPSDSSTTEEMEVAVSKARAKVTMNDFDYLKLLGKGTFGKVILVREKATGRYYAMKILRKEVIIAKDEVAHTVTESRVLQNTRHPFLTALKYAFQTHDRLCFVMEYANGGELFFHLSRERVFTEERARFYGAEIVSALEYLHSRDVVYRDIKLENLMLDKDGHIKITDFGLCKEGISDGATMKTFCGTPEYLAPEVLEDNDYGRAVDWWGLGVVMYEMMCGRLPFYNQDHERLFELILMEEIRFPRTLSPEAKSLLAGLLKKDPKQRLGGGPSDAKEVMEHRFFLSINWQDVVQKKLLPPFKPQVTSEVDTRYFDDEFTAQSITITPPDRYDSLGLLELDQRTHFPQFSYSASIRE
T3 sequence (P31751 whole entry): as above
T1 sequence (P31749 whole entry): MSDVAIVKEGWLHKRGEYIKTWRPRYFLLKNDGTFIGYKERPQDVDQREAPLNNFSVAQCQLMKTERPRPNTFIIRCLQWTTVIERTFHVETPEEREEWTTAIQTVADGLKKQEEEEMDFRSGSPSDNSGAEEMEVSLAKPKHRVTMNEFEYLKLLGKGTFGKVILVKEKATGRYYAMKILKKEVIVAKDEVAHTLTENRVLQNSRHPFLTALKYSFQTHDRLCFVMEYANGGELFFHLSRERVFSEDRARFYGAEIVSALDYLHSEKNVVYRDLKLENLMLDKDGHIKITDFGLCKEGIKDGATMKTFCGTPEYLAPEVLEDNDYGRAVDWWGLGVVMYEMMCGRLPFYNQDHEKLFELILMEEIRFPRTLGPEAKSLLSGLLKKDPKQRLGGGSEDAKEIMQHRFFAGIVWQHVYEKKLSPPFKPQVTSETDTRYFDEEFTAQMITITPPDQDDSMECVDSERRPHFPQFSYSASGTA
T4 sequence (P31749 whole entry): as above

Turning to `NC1(c2ccc(-c3ncc(NC(=O)C[C@H]4CC[C@H](N5CCOCC5)CC4)cc3-c3ccccc3)cc2)CC(F)(F)C1` [Example A2, N-(6-(4-(1-amino-3,3-difluorocyclobutyl)phenyl)-5-phenylpyridin-3-yl)-2-(trans-4-morpholinocyclohexyl)acetamide], the IC50 (in general, the concentration needed to halve the response being measured) was 7700 nM on p-Akt1 in LNCaP cells; 6000 nM at p-Akt2 in WM115 cells; 2600 nM on Akt2; 5500 nM on Akt1; 560 nM at p-Akt3 in WM115 cells; 1400 nM on Akt3.

In the case of `COC(=O)N[C@H]1CC[C@H](CC(=O)Nc2cnc(-c3ccc(C4(N)CC(F)(F)C4)cc3)c(-c3ccccc3)c2)CC1` [Example A4, Methyl (trans-4-(2-((6-(4-(1-amino-3,3-difluorocyclobutyl)phenyl)-5-phenylpyridin-3-yl)amino)-2-oxoethyl)cyclohexyl)carbamate], the IC50 on p-Akt1 in LNCaP cells was more than 30000 nM; on p-Akt2 in WM115 cells, 7600 nM; on Akt2, 2400 nM; at Akt1, 11000 nM; at p-Akt3 in WM115 cells, 440 nM; at Akt3, 630 nM.

Take `CN(C(=O)C(F)F)[C@H]1CC[C@H](CC(=O)Nc2cnc(-c3ccc(C(C)(C)N)cc3)c(-c3ccccc3)c2)CC1` [Example A7, N-(trans-4-(2-((6-(4-(2-aminopropan-2-yl)phenyl)-5-phenylpyridin-3-yl)amino)-2-oxoethyl)cyclohexyl)-2,2-difluoro-N-methylacetamide]: the IC50 at p-Akt1 in LNCaP cells was more than 30000 nM; at p-Akt2 in WM115 cells, 7100 nM; on Akt2 it was 5800 nM; at Akt1, more than 30000 nM; at p-Akt3 in WM115 cells it was 230 nM; on Akt3, 70 nM.

With `CC(=O)N[C@H]1CC[C@H](CC(=O)Nc2cnc(-c3ccc([C@H](N)C(F)F)cc3)c(-c3ccccc3)c2)CC1` [Example A12, 2-(trans-4-acetamidocyclohexyl)-N-(6-(4-((S)-1-amino-2,2-difluoroethyl)phenyl)-5-phenylpyridin-3-yl)acetamide], the IC50 on p-Akt1 in LNCaP cells was more than 20000 nM; at p-Akt2 in WM115 cells, 24000 nM; on Akt2, 16000 nM; at Akt1 it was more than 30000 nM; at p-Akt3 in WM115 cells, 590 nM; at Akt3, 4500 nM.

In the case of `NC1(c2ccc(-c3ncc(NC(=O)C[C@H]4CC[C@H](N5CCCCC5=O)CC4)cc3-c3ccsc3)cc2)CCC1` [Example A14, N-(6-(4-(1-aminocyclobutyl)phenyl)-5-(thiophen-3-yl)pyridin-3-yl)-2-(trans-4-(2-oxopiperidin-1-yl)cyclohexyl)acetamide], the IC50 was more than 30000 nM on p-Akt1 in LNCaP cells; 3200 nM on p-Akt2 in WM115 cells; 1800 nM on Akt2; more than 30000 nM at Akt1; 80 nM at p-Akt3 in WM115 cells; 170 nM at Akt3.

Take `C[C@]1(O)C[C@@](N)(c2ccc(-c3ncc(NC(=O)C[C@H]4CC[C@H](N5CCOCC5)CC4)cc3-c3ccccc3)cc2)C1` [Example A15, N-(6-(4-(trans-1-amino-3-hydroxy-3-methylcyclobutyl)phenyl)-5-phenylpyridin-3-yl)-2-(trans-4-morpholinocyclohexyl)acetamide]: the IC50 on p-Akt1 in LNCaP cells came out at 760 nM; on p-Akt2 in WM115 cells, 810 nM; at Akt2, 350 nM; on Akt1, 260 nM; on p-Akt3 in WM115 cells it was 48 nM; on Akt3, 290 nM.

On to `CC(C)(N)c1ccc(-c2ncc(NC(=O)C[C@H]3CC[C@H](N4CCOCC4)CC3)cc2-c2ccccc2)cc1` [Example A18, N-(6-(4-(2-aminopropan-2-yl)phenyl)-5-phenylpyridin-3-yl)-2-(trans-4-morpholinocyclohexyl)acetamide], for which the IC50 on p-Akt1 in LNCaP cells is more than 27000 nM; at p-Akt2 in WM115 cells it was 7900 nM; at Akt2, 25000 nM; at Akt1 it was more than 30000 nM; on p-Akt3 in WM115 cells it was 270 nM; at Akt3, 6300 nM.

For `CC(=O)N[C@H]1CC[C@H](CC(=O)Nc2cnc(-c3ccc(C(C)(C)N)cc3)c(-c3ccccc3)c2)CC1` [Example A19, 2-(trans-4-acetamidocyclohexyl)-N-(6-(4-(2-aminopropan-2-yl)phenyl)-5-phenylpyridin-3-yl)acetamide], the IC50 at p-Akt1 in LNCaP cells is more than 30000 nM; on p-Akt2 in WM115 cells, more than 30000 nM; on Akt2, more than 50000 nM; at Akt1 it was more than 45000 nM; at p-Akt3 in WM115 cells it was 1800 nM; at Akt3 it was 110 nM.

As for `CC(C)(N)c1ccc(-c2ncc(NC(=O)C[C@H]3CC[C@H](NC(=O)C4CC4)CC3)cc2-c2ccccc2)cc1` [Example A20, N-(trans-4-(2-((6-(4-(2-aminopropan-2-yl)phenyl)-5-phenylpyridin-3-yl)amino)-2-oxoethyl)cyclohexyl)cyclopropane-carboxamide], the IC50 at p-Akt1 in LNCaP cells was more than 30000 nM; at p-Akt2 in WM115 cells, 5400 nM; on Akt2, 2300 nM; on Akt1, more than 36000 nM; at p-Akt3 in WM115 cells, 200 nM; at Akt3, 55 nM.

As for `CN([C@H]1CC[C@H](CC(=O)Nc2cnc(-c3ccc(C(C)(C)N)cc3)c(-c3ccsc3)c2)CC1)S(C)(=O)=O` [Example A24, N-(6-(4-(2-aminopropan-2-yl)phenyl)-5-(thiophen-3-yl)pyridin-3-yl)-2-(trans-4-(N-methylmethylsulfonamido)cyclo-hexyl)acetamide], the IC50 on p-Akt1 in LNCaP cells is more than 30000 nM; on p-Akt2 in WM115 cells it was 8900 nM; on Akt2, 9600 nM; on Akt1, more than 30000 nM; on p-Akt3 in WM115 cells it was 510 nM; on Akt3 it was 2000 nM.

On to `CN([C@H]1CC[C@H](CC(=O)Nc2cnc(-c3ccc(C(C)(C)N)cc3)c(-c3ccccc3)c2)CC1)S(C)(=O)=O` [Example A25, N-(6-(4-(2-aminopropan-2-yl)phenyl)-5-phenylpyridin-3-yl)-2-(trans-4-(N-methylmethylsulfonamido)cyclo-hexyl)acetamide], for which the IC50 was more than 15000 nM at p-Akt1 in LNCaP cells; 5400 nM on p-Akt2 in WM115 cells; 5100 nM at Akt2; more than 30000 nM at Akt1; 260 nM at p-Akt3 in WM115 cells; 560 nM at Akt3.

As for `CN([C@H]1CC[C@H](CC(=O)Nc2cnc(-c3ccc(C(C)(C)N)cc3)c(-c3ccccc3F)c2)CC1)S(C)(=O)=O` [Example A26, N-(6-(4-(2-aminopropan-2-yl)phenyl)-5-(2-fluorophenyl)pyridin-3-yl)-2-(trans-4-(N-methylmethylsulfonamido)cyclo-hexyl)acetamide], the IC50 on p-Akt1 in LNCaP cells is more than 30000 nM; at p-Akt2 in WM115 cells it was 7000 nM; on Akt2, 3300 nM; at Akt1, more than 30000 nM; on p-Akt3 in WM115 cells it was 390 nM; on Akt3, 740 nM.

`COC(=O)N(C)[C@H]1CC[C@H](CC(=O)Nc2cnc(-c3ccc(C(C)(C)N)c(F)c3)c(-c3ccccc3)c2)CC1` [Example A28, Methyl (trans-4-(2-((6-(4-(2-aminopropan-2-yl)-3-fluorophenyl)-5-phenylpyridin-3-yl)amino)-2-oxoethyl)cyclohexyl)(methyl)carbamate]: the IC50 at p-Akt1 in LNCaP cells was more than 30000 nM; on p-Akt2 in WM115 cells, more than 20000 nM; on Akt2, more than 30000 nM; on Akt1, more than 30000 nM; on p-Akt3 in WM115 cells, 1500 nM; at Akt3 it was 5900 nM.

Consider `CN(C(=O)C1CC1)[C@H]1CC[C@H](CC(=O)Nc2cnc(-c3ccc(C(C)(C)N)cc3)c(-c3ccccc3)c2)CC1` [Example A29, N-(trans-4-(2-((6-(4-(2-aminopropan-2-yl)phenyl)-5-phenylpyridin-3-yl)amino)-2-oxoethyl)cyclohexyl)-N-methylcyclopropanecarboxamide], for which the IC50 on p-Akt1 in LNCaP cells was more than 28000 nM; at p-Akt2 in WM115 cells, 5800 nM; at Akt2 it was 5700 nM; on Akt1, more than 30000 nM; at p-Akt3 in WM115 cells, 150 nM; at Akt3 it was 490 nM.
